ChEMBL document CHEMBL1150463, “Identification of simpler analogs of neurotensin(913) which retain antinociceptive activity” (Bioorg Med Chem Lett, 1993)
Where a SMILES comes first, the peptide text is derived from it. [ ]: non-standard residue; d: D form. The star is where a group is joined. Orn = NCCC[C@H](N)C(=O)O; Nva = CCC[C@H](N)C(=O)O; Ahx = NCCCCCC(=O)O; X1 = CC(C)CCO*

How the values were obtained:
[1] = In vitro affinity for the neurotensin receptor on mouse brain membranes.; type: tissue-based
Mus musculus = test: Antinociceptive activity using the mouse phenylquinone writhing assay with i.c.v. administration; type: functional

Molecule	Ki [1]	ED50 (Mus musculus)
CC[C@H](C)[C@H](NC(=O)[C@H](Cc1ccc(O)cc1)NC(=O)[C@@H]1CCCN1C(=O)[C@H](CCCNC(=N)N)NC(=O)[C@@H](N)CCCNC(=N)N)C(=O)N[C@@H](CC(C)C)C(=O)O		0.092 ug mouse-1
CC[C@H](C)[C@H](NC(=O)[C@@H](N)Cc1ccc(O)cc1)C(=O)N[C@@H](CC(C)C)C(=O)O	> 10 µM	>50 ug mouse-1
NC(N)=NCCC[C@H](NC(=O)[C@@H](N)CCCN=C(N)N)C(=O)O (H-Arg-Arg-OH)	> 100 µM	>50 ug mouse-1
NC(N)=NCCC[C@H](NC(=O)[C@@H](N)CCCN=C(N)N)C(=O)N1CCC[C@H]1C(=O)O (H-Arg-Arg-Pro-OH)		>=500 ug mouse-1
NC(N)=NCCC[C@H](N)C(=O)N1CCC[C@H]1C(=O)O (H-Arg-Pro-OH)	> 10 µM	>50 ug mouse-1
NC(N)=NCCC[C@H](N)C(=O)N1CCC[C@H]1C(=O)N[C@@H](Cc1ccc(O)cc1)C(=O)O (H-Arg-Pro-Tyr-OH)	> 10 µM	55 ug mouse-1
CC[C@H](C)[C@H](NC(=O)[C@H](Cc1ccc(O)cc1)NC(=O)[C@@H]1CCCN1C(=O)[C@@H](N)CCCCN)C(=O)OCCC(C)C (H-KPYI-X1)	> 10 µM	
CC[C@H](C)[C@H](NC(=O)[C@@H](N)Cc1ccc(O)cc1)C(=O)O (H-Tyr-Ile-OH)	> 1 µM	>50 ug mouse-1
H-KAYIL-OH	> 10 µM	>50 ug mouse-1
H-KPAIL-OH	> 10 µM	>50 ug mouse-1
H-KPYIA-OH	> 10 µM	>50 ug mouse-1

Further lines, with some results ahead:

Ki [1]	Molecule	ED50 (Mus musculus)
0.004 µM	CC[C@@H](C)[C@H](NC(=O)[C@H](Cc1ccc(O)cc1)NC(=O)[C@@H]1CCCN1C(=O)[C@H](CCCNC(=N)N)NC(=O)[C@@H](N)CCCNC(=N)N)C(=O)N[C@@H](CC(C)C)C(=O)O	
0.073 µM	CC[C@H](C)[C@H](NC(=O)[C@H](Cc1ccc(O)cc1)NC(=O)[C@@H]1CCCN1C(=O)[C@@H](N)CCCN=C(N)N)C(=O)N[C@@H](CC(C)C)C(=O)O	0.0201 ug mouse-1
> 1 µM	CC[C@@H](C)[C@H](NC(=O)[C@H](Cc1ccc(O)cc1)NC(=O)[C@@H]1CCCN1)C(=O)O	>50 ug mouse-1
> 1 µM	CC[C@H](C)[C@H](N)C(=O)N[C@@H](CC(C)C)C(=O)O (H-Ile-Leu-OH)	>50 ug mouse-1
> 1 µM	CC[C@H](C)[C@H](NC(=O)[C@H](Cc1ccc(O)cc1)NC(=O)[C@@H]1CCCN1)C(=O)N[C@@H](CC(C)C)C(=O)O (H-PYIL-OH)	>50 ug mouse-1
13 µM	O=C(O)[C@H](Cc1ccc(O)cc1)NC(=O)[C@@H]1CCCN1 (H-Pro-Tyr-OH)	>50 ug mouse-1
> 1 µM	CC[C@H](C)[C@H](NC(=O)[C@H](Cc1ccc(O)cc1)NC(=O)[C@@H]1CCCN1C(=O)[C@@H](N)CCCN=C(N)N)C(=O)O (H-RPYI-OH)	>=50 ug mouse-1
1.3 µM	CC[C@H](C)[C@H](NC(=O)[C@H](Cc1ccc(O)cc1)NC(=O)[C@@H]1CCCN1C(=O)CCCCCN)C(=O)N[C@@H](CC(C)C)C(=O)O (H-[Ahx]PYIL-OH)	1.3 ug mouse-1
3 µM	CCC[C@H](N)C(=O)N1CCC[C@H]1C(=O)N[C@@H](Cc1ccc(O)cc1)C(=O)N[C@H](C(=O)N[C@@H](CC(C)C)C(=O)O)[C@@H](C)CC (H-[Nva]PYIL-OH)	>50 ug mouse-1
0.52 µM	CC[C@H](C)[C@H](NC(=O)[C@H](Cc1ccc(O)cc1)NC(=O)[C@@H]1CCCN1C(=O)[C@@H](N)CCCN)C(=O)N[C@@H](CC(C)C)C(=O)O (H-[Orn]PYIL-OH)	20 ug mouse-1
5.9 µM	H-APYIL-OH	<50 ug mouse-1
4.2 µM	H-KPYAL-OH	>50 ug mouse-1
0.69 µM	H-KPYIL-OH	8 ug mouse-1
